Results from EP0641797A1, “Cephem derivatives and antimicrobial agents containing the same” (KATAYAMA SEIYAKUSYO CO. Ltd., priority 1993, dated 1995).
In brackets after ≈: the same amount, converted by molar mass.

Key:
Experiment in all cases: MIC on standard strains, standard method of Japan Society of Chemotherapy
Assay type in all cases: cell-based
[1] = test system: A. calcoaceticos T59; conditions: read-out: MIC
Protocol: (§1) Antimicrobial activity of the compounds of the present invention were measured using CTM (cefotiam) and FMOX (flomoxef) as control drugs in accordance with the standard method of Japan Society of Chemotherapy. Of the 25 standard strains used in this test, Staphylococcus aureus 167 and Staphylococcus aureus 195 belong to MRSA.
(§2) In these tables, drugs tested are shown by the corresponding examples in which they were synthesized.

[2] = test system: A. faecalis ATCC 3750; conditions: Alcaligenes faecalis, ATCC3750, A. faecalis ATCC 3750; read-out: MIC
Protocol: as §1, §2

[3] = test system: B. subtilis ATCC 6633; conditions: Bacillus subtilis, ATCC6633, B. subtilis ATCC 6633; read-out: MIC
Protocol: as §1, §2

[4] = test system: C. freundii ATCC 8090; conditions: Citrobacter freundii, ATCC8090, C. freundii ATCC 8090; read-out: MIC
Protocol: as §1, §2

[5] = test system: E. cloacae ATCC 13407; conditions: Enterobacter cloacae, ATCC13407, E. cloacae ATCC 13407; read-out: MIC
Protocol: as §1, §2

[6] = test system: E. cloacae Nek39; conditions: Enterobacter cloacae, NEK39, E. cloacae Nek39; read-out: MIC
Protocol: as §1, §2

[7] = test system: E. coli CSH2(RE45); conditions: Escherichia coli
Protocol: as §1, §2

[8] = test system: E. coli CSH2(RK1); conditions: Escherichia coli
Protocol: as §1, §2

[9] = test system: E. coli NHIJ JC-2; conditions: Escherichia coli, NHIJJC2
Protocol: as §1, §2

[10] = test system: K. pneuminiae IFO 3317
Protocol: as §1, §2

[11] = test system: K. pneuminiae No. 42
Protocol: as §1, §2

[12] = test system: M. luteus ATCC 9341; conditions: Micrococcus luteus, ATCC9341
Protocol: as §1, §2

[13] = test system: M. morganii IFO 3848; conditions: Morganella morganii, IFO3848
Protocol: as §1, §2

[14] = test system: P. aeruginosa AKR17; conditions: Pseudomonas aeruginosa
Protocol: as §1, §2

[15] = test system: P. aeruginosa NCTC 10490; conditions: Pseudomonas aeruginosa, NCTC10490, P. aeruginosa NCTC 10490; read-out: MIC
Protocol: as §1, §2

[16] = test system: P. cepacia; conditions: Burkholderia cepacia, read-out: MIC
Protocol: as §1, §2

[17] = test system: P. mirabilis IFO 3849; conditions: Proteus mirabilis, IFO3849, P. mirabilis IFO 3849; read-out: MIC
Protocol: as §1, §2

[18] = test system: P. vulugaris OX-19
Protocol: as §1, §2

[19] = test system: S. aureus 167; conditions: Staphylococcus aureus; S. aureus 167 (MRSA)
Protocol: as §1, §2

[20] = test system: S. aureus 195; conditions: Staphylococcus aureus; S. aureus 195 (MRSA)
Protocol: as §1, §2

[21] = test system: S. aureus 209p JC-1; conditions: Staphylococcus aureus, 209P, read-out: MIC
Protocol: as §1, §2

[22] = test system: S. aureus Smith; conditions: Staphylococcus aureus, read-out: MIC
Protocol: as §1, §2

[23] = test system: S. epidemidis IAM 1296
Protocol: as §1, §2

[24] = test system: S. marcescens IAM 1184; conditions: Serratia marcescens, IAM1184, S. marcescens IAM 1184; read-out: MIC
Protocol: as §1, §2

[25] = test system: S. marcescens No. 16-2; conditions: Serratia marcescens, NO.162
Protocol: as §1, §2

| Structure (SMILES) | MIC [1] [µg/mL] | MIC [2] [µg/mL] | MIC [3] [µg/mL] | MIC [4] [µg/mL] | MIC [5] [µg/mL] | MIC [6] [µg/mL] | MIC [7] [µg/mL] | MIC [8] [µg/mL] | MIC [9] [µg/mL] | MIC [10] [µg/mL] | MIC [11] [µg/mL] | MIC [12] [µg/mL] | MIC [13] [µg/mL] | MIC [14] [µg/mL] | MIC [15] [µg/mL] | MIC [16] [µg/mL] | MIC [17] [µg/mL] | MIC [18] [µg/mL] | MIC [19] [µg/mL] | MIC [20] [µg/mL] | further results |
| --- | --- | --- | --- | --- | --- | --- | --- | --- | --- | --- | --- | --- | --- | --- | --- | --- | --- | --- | --- | --- | --- |
| NC(=NO)c1cc[n+](CC2=C(C(=O)[O-])N3C(=O)[C@@H](NC(=O)/C(=N\O)c4csc(N)n4)[C@H]3SC2)cc1 [Ex. 20, 7β-[2-(2-aminothiazol-4-yl)-2-syn-hydroxyiminoacetamido]-3-[4-(1-amino-1-hydroxyiminomethyl)pyridinio]methyl-3-cephem-4-carboxylate] | 6.25 (≈ 12.1 µM) | 0.78 (≈ 1.5 µM) | 0.2 (≈ 0.386 µM) | 0.2 (≈ 0.386 µM) | 12.5 (≈ 24.1 µM) | 50 (≈ 96.4 µM) | 0.2 (≈ 0.386 µM) | 0.39 (≈ 0.752 µM) | 0.2 (≈ 0.386 µM) | 0.1 (≈ 0.193 µM) | 0.39 (≈ 0.752 µM) | 0.025 (≈ 0.0482 µM) | 0.1 (≈ 0.193 µM) | > 100 | 0.78 (≈ 1.5 µM) | > 100 | 0.2 (≈ 0.386 µM) | 0.2 (≈ 0.386 µM) | 6.25 (≈ 12.1 µM) | 3.31 (≈ 6.38 µM) | MIC [21]: 0.2 µg/mL (≈ 0.386 µM); MIC [22]: 0.39 µg/mL (≈ 0.752 µM); MIC [23]: 0.05 µg/mL (≈ 0.0964 µM); MIC [24]: 0.1 µg/mL (≈ 0.193 µM); MIC [25]: 100 µg/mL (≈ 193 µM) |
| NC(=O)Nc1ccc[n+](CC2=C(C(=O)[O-])N3C(=O)[C@@H](NC(=O)/C(=N\O)c4nsc(N)n4)[C@H]3SC2)c1 [Ex. 2, 7β-[2-(5-amino-1,2,4-thiadiazol-3-yl)-2-syn-hydroxyiminoacetamido]-3-(3-ureidopyridinio)methyl-3-cephem-4-carboxylate] | 1.56 (≈ 3 µM) | 3.13 (≈ 6.02 µM) | 0.39 (≈ 0.751 µM) | 0.78 (≈ 1.5 µM) | 6.25 (≈ 12 µM) | 100 (≈ 192 µM) | 0.78 (≈ 1.5 µM) | 1.56 (≈ 3 µM) | 0.78 (≈ 1.5 µM) | 0.39 (≈ 0.751 µM) | 0.78 (≈ 1.5 µM) | 0.05 (≈ 0.0962 µM) | 0.78 (≈ 1.5 µM) | > 100 | 0.78 (≈ 1.5 µM) | > 100 | 1.56 (≈ 3 µM) | 1.56 (≈ 3 µM) | 6.25 (≈ 12 µM) | 3.13 (≈ 6.02 µM) | MIC [21]: 0.39 µg/mL (≈ 0.751 µM); MIC [22]: 0.78 µg/mL (≈ 1.5 µM); MIC [23]: 0.2 µg/mL (≈ 0.385 µM); MIC [24]: 0.39 µg/mL (≈ 0.751 µM); MIC [25]: 100 µg/mL (≈ 192 µM) |
| Nc1nc(-c2ccc[n+](CC3=C(C(=O)[O-])N4C(=O)[C@@H](NC(=O)/C(=N\O)c5csc(N)n5)[C@H]4SC3)c2)no1 [Ex. 14, 7β-[2-(2-aminothiazol-4-yl)-2-syn-hydroxyiminoacetamido)-3-[3-(5-amino-1,2,4-oxadiazol-3-yl)pyridinio]methyl-3-cephem-4-carboxylate] | 12.5 (≈ 23 µM) | 3.13 (≈ 5.76 µM) | 0.2 (≈ 0.368 µM) | 0.2 (≈ 0.368 µM) | 3.13 (≈ 5.76 µM) | 100 (≈ 184 µM) | 0.39 (≈ 0.718 µM) | 0.78 (≈ 1.44 µM) | 0.39 (≈ 0.718 µM) | 0.39 (≈ 0.718 µM) | 0.78 (≈ 1.44 µM) | 0.05 (≈ 0.092 µM) | 0.2 (≈ 0.368 µM) | > 100 | 3.13 (≈ 5.76 µM) | > 100 | 0.39 (≈ 0.718 µM) | 0.39 (≈ 0.718 µM) | 12.5 (≈ 23 µM) | 6.25 (≈ 11.5 µM) | MIC [21]: 0.2 µg/mL (≈ 0.368 µM); MIC [22]: 0.39 µg/mL (≈ 0.718 µM); MIC [23]: 0.1 µg/mL (≈ 0.184 µM); MIC [24]: 0.78 µg/mL (≈ 1.44 µM); MIC [25]: > 100 µg/mL |
| Nc1nc(/C(=N/O)C(=O)N[C@@H]2C(=O)N3C(C(=O)[O-])=C(C[n+]4ccc(-c5ncon5)cc4)CS[C@H]23)cs1 [Ex. 17, 7β-[2-(2-aminothiazol-4-yl)-2-syn-hydroxyiminoacetamido]-3-[4-(1,2,4-oxadiazol-3-yl)pyridinio]methyl-3-cephem-4-carboxylate] | 12.5 (≈ 23.7 µM) | 3.13 (≈ 5.92 µM) | 0.39 (≈ 0.738 µM) | 0.39 (≈ 0.738 µM) | 6.25 (≈ 11.8 µM) | 50 (≈ 94.6 µM) | 0.78 (≈ 1.48 µM) | 0.78 (≈ 1.48 µM) | 0.39 (≈ 0.738 µM) | 0.39 (≈ 0.738 µM) | 0.78 (≈ 1.48 µM) | 0.1 (≈ 0.189 µM) | 0.2 (≈ 0.378 µM) | > 100 | 3.13 (≈ 5.92 µM) | > 100 | 0.39 (≈ 0.738 µM) | 0.39 (≈ 0.738 µM) | 6.25 (≈ 11.8 µM) | 3.13 (≈ 5.92 µM) | MIC [21]: 0.39 µg/mL (≈ 0.738 µM); MIC [22]: 0.78 µg/mL (≈ 1.48 µM); MIC [23]: 0.2 µg/mL (≈ 0.378 µM); MIC [24]: 0.39 µg/mL (≈ 0.738 µM); MIC [25]: > 100 µg/mL |
| Nc1nc(/C(=N/O)C(=O)N[C@@H]2C(=O)N3C(C(=O)[O-])=C(C[n+]4cccc(-c5cscn5)c4)CS[C@H]23)cs1 [Ex. 9, 7β-[2-(2-aminothiazol-4-yl)-2-syn-hydroxyiminoacetamido]-3-[3-(thiazol-4-yl)pyridinio]methyl-3-cephem-4-carboxylate iodide] | 12.5 | 3.13 | 0.2 | 0.2 | 1.56 | 50 | 0.39 | 0.39 | 0.2 | 0.2 | 0.39 | 0.05 | 0.1 | > 100 | 3.13 | > 100 | 0.39 | 0.39 | 6.25 | 1.56 | MIC [21]: 0.1 µg/mL; MIC [22]: 0.2 µg/mL; MIC [23]: 0.05 µg/mL; MIC [24]: 0.39 µg/mL; MIC [25]: 50 µg/mL |
| Nc1nc(/C(=N/O)C(=O)N[C@@H]2C(=O)N3C(C(=O)[O-])=C(C[n+]4ccc(-c5nsc(N)n5)cc4)CS[C@H]23)cs1 [Ex. 11, 7β-[2-(2-aminothiazol-4-yl)-2-syn-hydroxyiminoacetamido]-3-[4-(5-amino-1,2,4-thiadiazol-3-yl)pyridinio]methyl-3-cephem-4-carboxylate] | 25 (≈ 44.7 µM) | 1.56 (≈ 2.79 µM) | 0.1 (≈ 0.179 µM) | 0.2 (≈ 0.357 µM) | 6.25 (≈ 11.2 µM) | > 100 | 0.2 (≈ 0.357 µM) | 0.39 (≈ 0.697 µM) | 0.1 (≈ 0.179 µM) | 0.1 (≈ 0.179 µM) | 0.39 (≈ 0.697 µM) | 0.05 (≈ 0.0893 µM) | 0.05 (≈ 0.0893 µM) | > 100 | 3.13 (≈ 5.59 µM) | > 100 | 0.2 (≈ 0.357 µM) | 0.1 (≈ 0.179 µM) | 6.25 (≈ 11.2 µM) | 1.56 (≈ 2.79 µM) | MIC [21]: 0.1 µg/mL (≈ 0.179 µM); MIC [22]: 0.1 µg/mL (≈ 0.179 µM); MIC [23]: 0.05 µg/mL (≈ 0.0893 µM); MIC [24]: 0.39 µg/mL (≈ 0.697 µM); MIC [25]: 100 µg/mL (≈ 179 µM) |
